“And” between values parts separate entries of the source, which are not always exact repeats. Equal entries are not always repeated.
Columns and labels:
[1] = system: hiPSC-CM (iCell Cardiomyocytes^2); test: RTCA CardioECR assessment (impedance and electrophysiology parameters); settings: for Spike Amplitude (SA) MEC / Beating Rate MEC / Beating rate (BR) MEC / Contractility Amplitude MEC / Field Potential Duration MEC / RTCA, MEC (BR): human, 72 h; for RTCA, MEC (CI): change ≥20%, Table 2
Method: (§1) Culture media change was performed every 2 days.
After seeding on fibronectin-coated xCELLigence ePlates (Agilent Technologies, Inc. Santa Clara, CA, USA), iCell^2 CM were monitored continuously through impedance electrodes. The following impedance parameters were measured: Cell Index (CI, measure of cell “health” and monolayer integrity), beating rate (BR) and amplitude (CI Amplitude, magnitude of contraction). Electrophysiology-like parameters (Field Potential Duration (FPD), considered as a surrogate for QT in in vivo studies, and Spike Amplitude (SA), depolarization induced by Na^+ channel opening) were measured starting from day 4–6, following the monolayer formation. […] All RTCA CardioECR data were double normalized (DMSO control and the baseline) with no further statistical group comparison for the normalized parameters. The variability of the data within the treatment groups was assessed by standard deviation.

[2] = system: hiPSC-CM (iCell Cardiomyocytes^2); test: Intracellular miRNA expression by RT-qPCR in hiPSC-CM pellets after 72-hour treatment
Method: as §1
Total RNA was extracted from hiPSC-CM using the miRNeasy 96 Kit (Qiagen, Hilden, Germany) following the manufacturer’s recommendations. After the extraction, RNA purity was assessed by NanoDrop™ 8000 Spectrophotometer (Thermo Fisher Scientific Inc.). 5–10 ng/μL of RNA per sample were reverse transcribed and pre-amplified by using the TaqMan™ Advanced miRNA cDNA Synthesis Kit (Thermo Fisher Scientific Inc.). The synthesized cDNA was used for RT-qPCR with selected TaqMan™ assays (Thermo Fischer Scientific Inc.). RT-qPCR was carried out following the Applied Biosciences TaqMan miRNA expression assay protocol on a ViiA7 instrument (Thermo Fisher Scientific, Inc.). […] Therefore, to maximize the number of drugs and concentrations, explored in the same study, we pooled the triplicates for intracellular profiling of miRNAs. Therefore, no statistical analysis was performed on the data of miRNA profiling in the pellets of hiPSC-CM.
Following RTCA CardioECR assessment, hiPSC-CM cell pellets were collected, and total RNA was extracted and purified to investigate miRNAs upregulation by RT-qPCR. […] For the initial assessment of intracellular miRNAs in 12 different treatments, encompassing various drug classes, we used a panel of 17 miRNAs, which we selected from the publicly available data focusing mainly on in vitro models and structural cardiotoxicants (Supplementary Table S2).

Compound	Spike Amplitude (SA) MEC [1] [µM]	miRNAs hiPSC-CM pellet, MEC overall [2] [µM]	RTCA, MEC (CI) ([1]; hiPSC-CM)	Beating Rate MEC [1] [µM]	Beating rate (BR) MEC [1] [µM]	Contractility Amplitude MEC [1] [µM]	Field Potential Duration MEC [1] [µM]	RTCA, MEC (BR) [1]	miRNAs upregulated at the MEC overall (hiPSC-CM pellet) [2]	Contractility Amplitude magnitude of effect at MEC ([1]; hiPSC-CM, 72-hour treatment) [%]	Field Potential Duration magnitude of effect at MEC ([1]; hiPSC-CM, 72-hour treatment)	Spike Amplitude (SA) magnitude of effect at MEC ([1]; hiPSC-CM, 72-hour treatment) [%]	hsa-miR-133b fold change [2]	hsa-miR-208b-3p fold change [2]
Cc1ccc(NC(=O)c2ccc(CN3CCN(C)CC3)cc2)cc1Nc1nccc(-c2cccnc2)n1 [Imatinib]	0.3	0.3	–	–	–	–	–	–	–	–	–	–	–	–
O=C1c2c(O)ccc(O)c2C(=O)c2c(NCCNCCO)ccc(NCCNCCO)c21 [Mitoxantrone]	0.1	0.1	0.1 µM (CI, BR)	0.1	0.1	0.1	0.1	0.1 µM (CI, BR)	miR-96 -5p, miR-146b-5p, miR-182-5p, miR-187-3p, miR-365a-5p	–	–	–	–	–
CC(=O)O[C@H]1C(=O)[C@@]2(C)[C@H]([C@H](OC(=O)c3ccccc3)[C@]3(O)C[C@H](OC(=O)[C@H](O)[C@@H](NC(=O)c4ccccc4)c4ccccc4)C(C)=C1C3(C)C)[C@]1(OC(C)=O)CO[C@@H]1C[C@@H]2O [Paclitaxel]	3	0.3	0.3 µM	3	3	0.3	3	3 µM	miR-96-5p, miR-133b	–	–	–	–	–
Endothelin-1	–	–	–	–	–	–	–	–	–	-20	+20%	-52	2.7 and 3.5 and 3.1	1.6 and 1.5 and 1.1 and 1.0

From article PMC12332266 (Frontiers in Pharmacology, 2025)
